Test results taken from the NIST ThermoML archive (doi:10.1021/acs.jced.9b00396).
± gives the expanded uncertainty stated by the source.

Conditions: Liquid, Vibrating tube method

C[S+](C)[O-] [dimethyl sulfoxide]
mass density [kg/m3]
Conditions	373.15 K	393.15 K	413.15 K	433.15 K	453.15 K	473.15 K
500 kPa	–	999 ± 1	979 ± 1	958 ± 1	936 ± 1	914 ± 1
1000 kPa	–	1000 ± 1	979 ± 1	958 ± 1	937 ± 1	915 ± 1
2500 kPa	–	1001 ± 1	981 ± 1	960 ± 1	939 ± 1	917 ± 1
5000 kPa	–	1004 ± 1	983 ± 1	963 ± 1	942 ± 1	921 ± 1
7500 kPa	1026 ± 1	1006 ± 1	986 ± 1	966 ± 1	945 ± 1	924 ± 1
10000 kPa	1027 ± 1	1008 ± 1	988 ± 1	968 ± 1	948 ± 1	927 ± 1
12500 kPa	1029 ± 1	1010 ± 1	990 ± 1	971 ± 1	951 ± 1	930 ± 1
15000 kPa	1031 ± 1	1012 ± 1	993 ± 1	973 ± 1	953 ± 1	933 ± 1
17500 kPa	1033 ± 1	1014 ± 1	995 ± 1	976 ± 1	956 ± 1	936 ± 1
20000 kPa	1035 ± 1	1016 ± 1	997 ± 1	978 ± 1	959 ± 1	939 ± 1
22500 kPa	1037 ± 1	1018 ± 1	999 ± 1	980 ± 1	961 ± 1	942 ± 1
25000 kPa	1038 ± 1	1020 ± 1	1001 ± 1	983 ± 1	964 ± 1	945 ± 1
27500 kPa	1040 ± 1	1022 ± 1	1003 ± 1	985 ± 1	966 ± 1	948 ± 1
30000 kPa	1042 ± 1	1024 ± 1	1005 ± 1	987 ± 1	969 ± 1	950 ± 1
32500 kPa	1044 ± 1	1025 ± 1	1007 ± 1	989 ± 1	971 ± 1	953 ± 1
35000 kPa	1045 ± 1	1027 ± 1	1009 ± 1	991 ± 1	973 ± 1	955 ± 1
37500 kPa	1047 ± 1	1029 ± 1	1011 ± 1	993 ± 1	976 ± 1	958 ± 1
